The values that follow come from publication PMC10307063, “Bioprospection of Selected Plant Secondary Metabolites as Modulators of the Proteolytic Activity of Plasmodium falciparum Plasmepsin V” (BioMed Research International, 2023).

Assay [1] has as its target T1, Plasmodium falciparum plasmepsin V (PfPMV) (Plasmodium falciparum, UniProt Q8I6Z5).
T1 construct: gene PMV; Trx-PfPMVp37
Nature of the assay: casein proteolysis assay with recombinant enzyme (A280), Lineweaver-Burk kinetics. The format is biochemical.

Assay [2] concerns the target T1, Plasmodium falciparum plasmepsin V (PfPMV). As to the kind of experiment: casein proteolysis assay with recombinant enzyme (A280). The format is biochemical.

Where a SMILES comes first, the peptide text is derived from it. [ ]: non-standard residue; d: D form. The star is where a group is joined. Sta = CC(C)C[C@H](N)[C@@H](O)CC(=O)O; Isovaleryl = CC(C)CC(=O)*

T1 sequence (Q8I6Z5 whole entry): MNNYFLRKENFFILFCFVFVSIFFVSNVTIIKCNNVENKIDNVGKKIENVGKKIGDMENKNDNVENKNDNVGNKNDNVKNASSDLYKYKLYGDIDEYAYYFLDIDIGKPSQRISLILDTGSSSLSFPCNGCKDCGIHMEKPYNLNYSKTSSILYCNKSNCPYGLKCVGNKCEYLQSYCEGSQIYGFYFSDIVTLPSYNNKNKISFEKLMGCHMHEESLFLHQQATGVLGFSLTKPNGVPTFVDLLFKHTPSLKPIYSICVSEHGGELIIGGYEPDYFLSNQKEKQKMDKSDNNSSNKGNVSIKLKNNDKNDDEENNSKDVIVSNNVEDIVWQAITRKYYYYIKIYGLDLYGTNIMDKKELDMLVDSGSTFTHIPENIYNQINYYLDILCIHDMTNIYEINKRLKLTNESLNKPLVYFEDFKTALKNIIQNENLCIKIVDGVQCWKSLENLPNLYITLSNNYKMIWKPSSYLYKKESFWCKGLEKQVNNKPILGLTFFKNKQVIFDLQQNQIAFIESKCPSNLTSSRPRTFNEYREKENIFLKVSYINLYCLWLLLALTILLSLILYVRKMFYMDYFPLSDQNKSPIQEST

Consider `O=c1c(O)c(-c2ccc(O)cc2)oc2cc(O)cc(O)c12` [kaempferol], for which the IC50 in assay [1] turned out to be 22.4 µM.

In the case of `CC(C)CC(=O)N[C@H](C(=O)N[C@H](C(=O)N[C@@H](CC(C)C)[C@@H](O)CC(=O)N[C@@H](C)C(=O)N[C@@H](CC(C)C)[C@@H](O)CC(=O)O)C(C)C)C(C)C` [pepstatin] (Isovaleryl-VV[Sta]A[Sta]-OH), the IC50 in assay [2] was 62.6 µM.

Take `O=c1c(O)c(-c2ccc(O)c(O)c2)oc2cc(O)cc(O)c12` [quercetin]: the IC50 in assay [1] came out at 53.1 µM.

`CC(C)=CC[C@@H](O)C1=CC(=O)c2c(O)ccc(O)c2C1=O` [shikonin]: in assay [1], the IC50 stood at 43.3 µM.
